# Test results from patent US20230413857A1, “COMPOSITIONS OF MICROORGANISMS AND METHODS OF USING SAME” (The State of Israel, Ministry of Agriculture & Rural …, priority 2020, published 2023).
# Legend:
# [1] = test system: Aeromonas salmonicida; type: cell-based; settings: 200 μg
# [2] = test system: Streptococcus iniae; type: cell-based; settings: 200 μg
# [3] = test system: Pythium aphanidermatum; assay: Paper disk in-vitro bioactivity assay on PDA plates; type: cell-based; settings: PDA plate
# [4] = test system: Photobacterium damselae; type: cell-based; settings: 200 μg
# [5] = test system: Phytophthora infestans; type: cell-based; settings: 200 μg on a paper disk, PDA plate
# [6] = test system: Achlya bisexualis; assay: Paper disk in-vitro bioactivity assay on PDA plates; type: cell-based; settings: PDA plate
# [7] = test system: Saprolegnia parasitica; assay: 8-Nonenoic acid vs. Saprolegnia parasitica in Tilapia eggs bioassay test; type: in vivo, Tilapia (Oreochromis mossambicus) eggs; settings: S. parasitica plugs and 10 μg/ml, one week, 26° C.
# Protocol: Tilapia (Oreochromis mossambicus) eggs, 3 days post fertilization, were collected from the hatchery at the department of fisheries in ARO the Volcani Center and brought to the lab. Eggs were rinsed with aquarium water. Eggs were introduced to 100 ml flasks (25 ml water in each flask), 6 eggs for each flask. Eggs were introduced with Saprolegnia parasitica plugs in the flask or with Saprolegnia parasitica plugs and 10 μg/ml 8-Nonenoic acid. Control eggs were not treated and/or supplemented. Flasks were incubated on a shaker under controlled conditions: 26° C., 95 rpm, and day light for a week.
# [8] = test system: S. parasitica mycelia; assay: Compound bioassays of 8-Nonenoic acid in liquid and solid media; type: cell-based, Saprolegnia parasitica; settings: for Concentration giving full inhibition of S. parasitica growth: 19° C., 3 days
# Protocol: The inhibition activity of the compound 8-Nonenoic acid was examined in both liquid and solid media. For liquid assay, a plug of PDA harboring the S. parasitica mycelia was introduced to 1 ml of sterile double distilled water (DDW) with 10 μl of potato dextrose broth (PDB) and varying concentrations of 8-Nonenoic acid (0, 0.1, 0.5, 1, 2.5, 5, 7.5, 10, 20 μg/ml) in 48 well plate and incubated at 19° C. for 3 days. For solid assay, a plug of PDA harboring the S. parasitica mycelia was introduced to 50 mm PDA petri plates with varying concentrations of 8-Nonenoic acid (as described above) and incubated at 19° C. for 3 days. For both liquid and solid, mycelium growth radios was measured and S. parasitica plugs viability were evaluated by transferring them to fresh PDB/PDA and observing the growth developed within 3 days. All experiments were performed in triplicates.
smiles,measurement,setting,value
CC(C)(c1ccccc1)c1ccc(O)cc1 [4-Cumylphenol],Inhibitory activity,[1],showed inhibitory activity
same,Inhibitory activity,[2],showed inhibitory activity
same,Inhibition of the oomycete mycelium,[3]; 200 μg on a paper disk,showed inhibition
same,Inhibitory activity,[4],showed inhibitory activity
same,Inhibition of the oomycete mycelium,[5],showed inhibition
same,Inhibition of the oomycete mycelium,[6]; 200 μg on a paper disk,showed inhibition
C=CCCCCCCC(=O)O [8-Nonenoic acid],Survival of Tilapia eggs,[7],did survive
same,Inhibition of the oomycote mycelium,[3]; 100 μg on a paper disk,showed inhibition
same,Inhibition of S. parasitica growth,[8]; 0.1 g/ml in both water and agar,No inhibition
same,Inhibition of S. parasitica growth,"[8]; 0.5-2.5 μg/ml, agar phase",no inhibition
same,Concentration at which the growth radius decreased,[8]; in agar,≥ 5 µg/mL
same,Concentration giving full inhibition of S. parasitica growth,[8]; in agar (solid assay),20 µg/mL
same,Concentration giving full inhibition of S. parasitica growth,[8]; in water (liquid assay),2.5 µg/mL
same,Ability to inhibit S. parasitica growth (screen of compounds identified from ABp5),"[8]; purchased GC/MS-identified compounds, FIG. 13A",strong ability to inhibit
same,Viability of fully inhibited S. parasitica plugs,[8]; transferred to a new plate,complete loss of viability
same,Inhibition of the oomycote mycelium,[6]; 100 μg on a paper disk,showed inhibition
